{"source": "patent US11352308B2", "about": "“Compound and semiconductor material containing same” (DIC Corporation, priority 2016, dated 2022)", "data": [{"test": "Solubility in p-xylene at room temperature (25° C.), visual complete dissolution", "type": "physicochemical", "protocol": "Solubility was evaluated by completely dissolving compound (101) visually by adding p-xylene at room temperature (25° C.).", "values": [{"compound": "CCCCCCc1ccc2cc3cc(-c4ccccc4)ccc3cc2c1", "note": "[Compound (101)]", "Solubility of compound": "1.3 wt %"}, {"compound": "CCCCCCCc1ccc2cc3cc(-c4ccccc4)ccc3cc2c1", "note": "[Compound (102)]", "Solubility of compound": "1.1 wt %"}, {"compound": "CCCCCCCCc1ccc2cc3cc(-c4ccccc4)ccc3cc2c1", "note": "[Compound (103)]", "Solubility of compound": "0.7 wt %"}, {"compound": "CCCCCCCCCc1ccc2cc3cc(-c4ccccc4)ccc3cc2c1", "note": "[Compound (104)]", "Solubility of compound": "0.7 wt %"}, {"compound": "CCCCCCCCCCc1ccc2cc3cc(-c4ccccc4)ccc3cc2c1", "note": "[Compound (105)]", "Solubility of compound": "0.4 wt %"}, {"compound": "CCCCCCc1ccc2cc3cc(-c4ccc(C)cc4)ccc3cc2c1", "note": "[Compound (106)]", "Solubility of compound": "0.8 wt %"}, {"compound": "CCCCCCCCCCc1ccc2cc3cc(-c4ccc(C)cc4)ccc3cc2c1", "note": "[Compound (107)]", "Solubility of compound": "0.4 wt %"}, {"compound": "c1ccc(-c2ccc3cc4cc(-c5ccccc5)ccc4cc3c2)cc1", "note": "[Compound (C101), reference compound]", "Solubility of compound": "<0.1 (which cannot accurately be wt %"}]}]}
